Among the data in patent US7629340B2, “N-(6-membered aromatic ring)-amido anti-viral compounds” (SmithKline Beecham Corporation, priority 2005, dated 2009) are inhibition values, retold here.

A short description of this assay: Replicon Assay (luciferase, ET cell line). Conditions: Hepatitis C virus; % inhibition of replication relative to no compound control, test concentration of 10 μM; ET cells, luciferase read 48-72 hours; read-out: % inhib at 10 uM. It is filed as cell-based, HCV. How it is done: A cell line, ET (Huh-lucubineo-ET) was used for screening of compounds of the present invention for HCV RNA dependent RNA polymerase. The ET cell line was stably transfected with RNA transcripts harboring a I389luc-ubi-neo/NS3-3′/ET; replicon with firefly luciferase-ubiquitin-neomycin phosphotransferase fusion protein and EMCV-IRES driven NS3-5B polyprotein containing the cell culture adaptive mutations (E1202G; T1280I; K1846T) (Krieger at al, 2001 and unpublished). The ET cells were grown in DMEM, supplemented with 10% fetal calf serum, 2 mM Glutamine, Penicillin (100 IU/mL)/Stretomycin (100 μg/mL), 1× nonessential amino acids, and 250 μg/mL G418 (“Geneticin”). They were all available through Life Technologies (Bethesda, Md.). The cells were plated at 0.5−1.0×10^4 cells/well in the 96 well plates and incubated for 24 hrs before adding nucleoside analogs. […] Luciferase activity were measured 48-72 hours later by adding a lysis buffer and the substrate (Catalog number Glo-lysis buffer E2661 and Bright-Glo luciferase system E2620 Promega, Madison, Wis.). Cells should not be too confluent during the assay. Percent inhibition of replication was plotted relative to no compound control. Under the same condition, cytotoxicity of the compounds was determined using cell proliferation reagent, WST-1 (Roche, Germany). The compounds showing antiviral activities, but no significant cytotoxicities were chosen to determine IC50 and TC50. For these determinations, 10 concentration of each compound were used. Concentrations for test compounds typically span a range of 500 fold. IC50 and TC50 values were calculated by fitting % inhibition at each concentration (I) to the following equation: % inhibition=100%/[1+10^(log IC50−log(I))*b] where b is Hill's coefficient.
For orientation: Replicon systems follow genome replication, usually without infectious particles.
For `Nc1cccc(-c2cccc(NC(=O)[C@@H]3CCCN3C(=O)OCc3ccccc3)c2)c1` [Compound 6054, 2-(3′-Amino-biphenyl-3-ylcarbamoyl)-pyrrolidine-1-carboxylic acid benzyl ester], the inhibition at 10 µM was found to be 97.7%. Then `COc1ccc(-c2ccc(NC(=O)[C@@H]3CCCN3C(=O)OCc3ccccc3)cc2)cc1` [Compound 6019, 2-(4′-Methoxy-biphenyl-4-ylcarbamoyl)-pyrrolidine-1-carboxylic acid benzyl ester], with 10.5%. `CC(=O)Nc1cccc(-c2cccc(NC(=O)[C@@H]3CCCN3C(=O)OCc3ccccc3)c2)c1` [Compound 6057, 2-(3′-Acetylamino-biphenyl-3-ylcarbamoyl)-pyrrolidine-1-carboxylic acid benzyl ester]: the inhibition at 10 µM is 61.7%. The result for `O=C(Nc1cccc(-c2ccc3cc(O)ccc3c2)c1)[C@@H]1CCCN1C(=O)OCc1ccccc1` [Compound 6088, 2-[3-(6-Hydroxy-naphthalen-2-yl)-phenylcarbamoyl]-pyrrolidine-1-carboxylic acid benzyl ester] reads 99.9%; that for `O=C(Nc1cccc(-c2cccs2)c1)[C@@H]1CCCN1C(=O)OCc1ccccc1` [Compound 6022, 2-(3-Thiophen-2-yl-phenylcarbamoyl)-pyrrolidine-1-carboxylic acid benzyl ester], 87.3%; that for `O=C(Nc1cccc(-c2ccc3[nH]ccc3c2)c1)[C@@H]1CCCN1C(=O)OCc1ccccc1` [Compound 6010, 2-[3-(1H-Indol-5-yl)-phenylcarbamoyl]-pyrrolidine-1-carboxylic acid benzyl ester], 98.6%. The result for `O=C(Nc1cccc(Oc2ccccc2)c1)[C@@H]1CCCN1C(=O)OCc1ccccc1` [Compound 6034, 2-(3-Phenoxy-phenylcarbamoyl)-pyrrolidine-1-carboxylic acid benzyl ester] reads 26.7%. The result for `O=C(O)/C=C/c1ccc(-c2cccc(NC(=O)[C@@H]3CCCN3C(=O)OCc3ccccc3)c2)cc1` [Compound 6055, 2-[4′-(2-Carboxy-vinyl)-biphenyl-3-ylcarbamoyl]-pyrrolidine-1-carboxylic acid benzyl ester] reads 40.9%.

Take `COc1ccc(-c2cccc(NC(=O)[C@@H]3CCCN3C(=O)OCc3ccccc3)c2)cc1` [Compound 6037, 2-(4′-Methoxybiphenyl-3-yl-carbamoyl)-pyrrolidine-1-carboxylic acid benzyl ester]: the inhibition at 10 µM came out at 8.6%. The result for `Cc1cc2nc(Cc3ccc(NC(=O)[C@@H]4CCCN4C(=O)OCc4ccccc4)cc3)[nH]c2cc1C` [Compound 6014, 2-[4-(5,6-Dimethyl-1H-benzoimidazol-2-ylmethyl)-phenylcarbamoyl]-pyrrolidine-1-carboxylic acid benzyl ester] reads 99.6%; that for `O=C(NC1CC1)c1cccc(-c2cccc(NC(=O)[C@@H]3CCCN3C(=O)OCc3ccccc3)c2)c1` [Compound 6310, 2-(3′-Cyclopropylcarbamoyl-biphenyl-3-ylcarbamoyl)-pyrrolidine-1-carboxylic acid benzyl ester], 78.4%; that for `CC(=O)c1cccc(-c2cccc(NC(=O)[C@@H]3CCCN3C(=O)OCc3ccccc3)c2)c1` [Compound 6087, 2-(3′-Acetyl-biphenyl-3-ylcarbamoyl)-pyrrolidine-1-carboxylic acid benzyl ester], 78.9%. Turning to `COc1ccc2nc(NC(=O)c3ccc(NC(=O)[C@@H]4CCCN4C(=O)OCc4ccccc4)cc3)sc2c1` [Compound 6030, 2-[4-(6-Methoxy-benzothiazol-2-ylcarbamoyl)-phenylcarbamoyl]-pyrrolidine-1-carboxylic acid benzyl ester], the inhibition at 10 µM was 42.2%. Then `Cc1c(Br)cc2[nH]c(Cc3ccc(NC(=O)[C@@H]4CCCN4C(=O)OCc4ccccc4)cc3)nc2c1C` (stereo in doubt) [Compound 6006, 2-[4-(6-Bromo-4,5-dimethyl-1H-benzoimidazol-2-ylmethyl)-phenylcarbamoyl]-pyrrolidine-1-carboxylic acid benzyl ester], with 70%; and `O=C(Nc1ccc(-c2ccc3[nH]ccc3c2)cc1)[C@@H]1CCCN1C(=O)OCc1ccccc1` [Compound 6009, 2-[4-(1H-Indol-5-yl)-phenylcarbamoyl]-pyrrolidine-1-carboxylic acid benzyl ester], with 83.3%.

As for `O=C(NC1CC1)c1csc(-c2cccc(NC(=O)[C@@H]3CCCN3C(=O)OCc3ccccc3)c2)n1` [Compound 6302, 2-[3-(4-Cyclopropylcarbamoyl-thiazol-2-yl)-phenylcarbamoyl]-pyrrolidine-1-carboxylic acid benzyl ester], the inhibition at 10 µM came out at 12.2%. Then `O=C(Nc1cccc(-c2cccc3cc[nH]c23)c1)[C@@H]1CCCN1C(=O)OCc1ccccc1` [Compound 6094, 2-[3-(1H-Indol-7-yl)-phenylcarbamoyl]-pyrrolidine-1-carboxylic acid benzyl ester], with 98.8%.

For `Nc1cc(-c2cccc(NC(=O)[C@@H]3CCCN3C(=O)OCc3ccccc3)c2)cc(C(F)(F)F)c1` [Compound 6095, 2-(3′-Amino-5′-trifluoromethyl-biphenyl-3-ylcarbamoyl)-pyrrolidine-1-carboxylic acid benzyl ester], the inhibition at 10 µM came to 61.6%. Then `O=C(Nc1ccc(Cc2nc3cc4ccccc4cc3[nH]2)cc1)[C@@H]1CCCN1C(=O)OCc1ccccc1` [Compound 6020, 2-[4-(1H-Naphtho[2,3-d]imidazol-2-ylmethyl)-phenylcarbamoyl]-pyrrolidine-1-carboxylic acid benzyl ester], with 99.9%; and `O=C(Nc1cccc(-c2ccc([N+](=O)[O-])cc2)c1)[C@@H]1CCCN1C(=O)OCc1ccccc1` [Compound 6053, 2-(4′-Nitro-biphenyl-3-ylcarbamoyl)-pyrrolidine-1-carboxylic acid benzyl ester], with 93.3%; and `COc1ccc(-c2ccc(NC(=O)[C@@H]3CCCN3C(=O)OCc3ccccc3)cc2)c(OC)c1` [Compound 6001, 2-(2′,4′-Dimethoxy-biphenyl-4-ylcarbamoyl)-pyrrolidine-1-carboxylic acid benzyl ester], with 87.8%. The result for `O=C(Nc1cccc(-c2ccc3ncsc3c2)c1)[C@@H]1CCCN1C(=O)OCc1ccccc1` [Compound 6304, 2-(3-Benzothiazol-6-yl-phenylcarbamoyl)-pyrrolidine-1-carboxylic acid benzyl ester] reads 70.4%; that for `NC(=O)Nc1cccc(-c2cccc(NC(=O)[C@@H]3CCCN3C(=O)OCc3ccccc3)c2)c1` [Compound 6093, 2-(3′-Ureido-biphenyl-3-ylcarbamoyl)-pyrrolidine-1-carboxylic acid benzyl ester], 98.1%.

For `O=C(NC1CC1)c1ccc(-c2cccc(NC(=O)[C@@H]3CCCN3C(=O)OCc3ccccc3)c2)cc1` [Compound 6301, 2-(4′-Cyclopropylcarbamoyl-biphenyl-3-ylcarbamoyl)-pyrrolidine-1-carboxylic acid benzyl ester], the inhibition at 10 µM amounted to 99.1%. `O=C(Nc1ccc(-c2nnc(-c3ccco3)o2)cc1)[C@@H]1CCCN1C(=O)OCc1ccccc1` [Compound 6025, 2-[4-(5-Furan-2-yl-[1,3,4]oxadiazol-2-yl)-phenylcarbamoyl]-pyrrolidine-1-carboxylic acid benzyl ester]: the inhibition at 10 µM stood at 5.45%.
